The text below walks through data of publication PMC10323112 (Cancer Science, 2023).

Data set [1] has as its system p-AKT in NCI-H1993 (KRAS^WT, PIK3CA^WT) cells. The data set is described as follows: Basal p-AKT assay. The data set is classed as cell-based, human. The conditions noted are these: NCI‐H1993 (KRAS^WT, PIK3CA^WT) cell line.
For data set [2], the system named is NCI-H358 (KRAS^G12C). The data set is described as follows: Proliferation assay. The data set is classed as cell-based, human. As to conditions: NCI-H358 (Figure S2D).
Data set [3] concerns NCI-H1993 (KRAS^WT). The data set is described as follows: Proliferation assay. The data set is classed as cell-based, human. The conditions noted are these: NCI-H1993 (Figure S2D).
Data set [4] relates to p-AKT in NCI-H358 (KRAS^G12C, PIK3CA^WT) cells. The data set is described as follows: Basal p-AKT assay. The class given is cell-based, human. As to conditions: NCI‐H358 (KRAS^G12C, PIK3CA^WT) cell line.
Data set [5] is described as follows: in vitro. The class given is in vitro ADME. The conditions noted are these: CD-1, mouse, brain homogenate.
The conditions of data set [6]: 30 mg/kg.
A short description of data set [7]: in vivo. As to conditions: female, Balbc nude, mouse, 30 mg/kg.
Data set [8] is described as follows: in vitro. The conditions noted are these: CD-1, mouse, plasma.
Data set [9] can be described thus: in vitro. The conditions noted are these: human, Caco-2.

Take `C[C@H](Nc1ccc2c(c1)OCCn1cc(N3C(=O)OC[C@H]3C(F)F)nc1-2)C(N)=O` [GDC-0077]: the “effect on p‐AKT level” value in [1] and in data set [4] was “reduced” in each case. Further, the “inhibitory effect on cell proliferation” value in data set [2] and in data set [3] was “very weak inhibitory effect” in each case.

A word on the fraction unbound: it is the share of the substance not bound to proteins or other matrix. Read a high fraction unbound as weak binding. The AUC is concentration integrated over time. A high value points to more exposure. One may read the Papp A→B as the apparent permeability from the apical to the basolateral side of a cell layer. Regarding `C=C(F)C(=O)N1CCN(c2nc(OC[C@@H]3CCCN3C)nc3c2CCN(c2cccc4cccc(Cl)c24)C3)C[C@@H]1CC#N` [Adagrasib, adagrasib], the fraction unbound at 5 h, 1 μM in data set [5] stood at 0.001. The “Unbound brain AUC” value in data set [6] (AUCbrain × fu,brain) was determined as 0.0009 µM·h. Besides, the “Unbound plasma AUC” value in [6] (AUCplasma × fu,plasma) was 0.089 µM·h. In data set [7], the AUC stood at 44.3 µM·h and the Kp uu was found to be 0.01. This compound also displayed a fraction unbound at 5 h, 1 μM in data set [8] of 0.002. Besides, the Papp A→B at 120 min, 10 μM in data set [9] worked out at 0.8 ×10⁻⁶ cm/s.
